Each structure is given as a SMILES string.

The target of one assay is ATIC (AICARFT) (Homo sapiens, UniProt P31939). The assay can be described thus: Folate dependent enzyme assay, conversion of ZMP to IMP (LC-MS). The note with it: read-out: Positive Control, IC50. It is filed as biochemical. Here is the method: (§1) The human MTHFD2 (accession number: NM_006636.3) and MTHFD2L (accession number: NM_001144978.1) cDNAs were synthesized at GenScript. […] Bacterial BL21 (DE3) (Novagen) was used as an expression host, and protein purification is described in supplemental material.
(§2) Catalytic activity was assayed under the listed reaction conditions using a liquid chromatograph and either fluorescence or mass spectrometric detection as indicated. Reactions were carried out at RT for the reaction times given. The % response was fit to a four-parameter logistic equation using ACTIVITYBASE 4.0 to determine IC50 values.

The target in a further assay is SHMT1 (Homo sapiens, UniProt P34896). The assay can be described thus: Folate dependent enzyme assay, glycine derivatized with Marfey's reagent (HPLC). It is filed as biochemical. Conditions: read-out: Positive Control, IC50. How it is done: as §1, §2
Another assay has as its target T1, MTHFD1 (Homo sapiens, UniProt P11586).
T1 construct: made in house; host or cells: E. coli BL21 (DE3)
The assay can be described thus: Folate dependent enzyme assay, NADPH (NAD(P)H-Glo). It is filed as biochemical. The note with it: read-out: Positive Control, IC50.

The target in another assay is MTHFD2 (Homo sapiens, UniProt P13995). The assay can be described thus: Folate dependent enzyme assay, NADH (NAD(P)H-Glo). It is filed as biochemical. Conditions: read-out: Positive Control, IC50.
In a further assay the target is MTHFD2L (Homo sapiens, UniProt Q9H903). The assay can be described thus: Folate dependent enzyme assay, NADH (NAD(P)H-Glo). It is filed as biochemical. Conditions: read-out: Positive Control, IC50.
Assay [1] has as its system MDA-MB-231met2 and NCI-H460 tumors. In words: Tumor volume versus tumor ZMP levels, three parameter logistic fit. It is filed as in vivo, mouse. Conditions: individual animal data after LSN3213128 treatment, read-out: IC50 of tumor ZMP level for tumor volume. The text has this:
The levels of total AMPKα and P70S6K are also shown. […] The levels of total AMPKα are also shown. […] Full images and the croppings used in this figure are shown in Supplemental Figures S14–S21.
Tumor volume decreases with increasing ZMP; however, in these solid tumors there was no evidence for AMPK activation, either using AMPK phosphorylation at T172 or downstream measures at P70S6K T389. Salvage of purines in vivo may explain the absence of purine changes; therefore, we measured levels of hypoxanthine for mouse plasma to be 0.36 ± 0.02 μM (n = 5) which was lower than that reported by Slowiaczek et al.[23]. We also quantified hypoxanthine in human plasma, finding the levels were 2.07 ± 0.01 μM (n = 5), well within the 0.45–34 μM range reported in the literature[19],[23]–[29].

A further assay concerns NCI-H460 (lung). The assay can be described thus: MS detection of ZMP in cultured cells. Conditions: NCI-H460; data not shown. It is filed as cell-based, human. How it is done:
Cells lines were acquired from cell banks, see supplemental material, grown using the cell banks recommended culture conditions (Supplemental Table 3). In some experiments noted “low folate” the cells were washed and grown in folate free RPMI-1640 media (Gibco #27016-021) supplemented with 5 ml 1 M Hepes, 5 ml 100 mM Na pyruvate, 2.5 mg/ml glucose and 10% defined FBS (Hyclone #SH30070) per 500 mL media for 5–7 days to deplete intracellular folate levels prior to the start of the experiment. Where noted, cells were maintained in complete “high folate” RPMI-1640 media (ATCC #30-2001) with 10% defined FBS to contrast with the low folate conditions.
ZMP was detected in cultured cells via mass spec analysis. Cells were plated in 96-well plates at 25,000 cells per well in 100 µL with either high or low folate RPMI media and incubated overnight at 37 °C with 5% CO2. Cells were treated with inhibitor compounds for 16 hours, 0.5% DMSO final concentration. Growth media was decanted and cells were lysed for 10 min at room temperature with 50 µL per well of 1x Sure Fire Lysis buffer (Perkin Elmer, SureFire kit component). Aliquots (40 µL) of standard or sample were combined in a deep 96-well plate with 160 µL of internal standard solution containing ^13C5-ZMP (custom synthesis) and ^13C5-AICAr (custom synthesis) at 100 ng/mL in 40 mM ammonium acetate, pH 4. 400 µL of dichloromethane was added to each sample. Samples were sealed, vortexed for 5 minutes, and placed in the refrigerator for at least 30 minutes. The samples were centrifuged at 4 °C for 10 minutes at 16,600 g. 75 µL of the aqueous layer were transferred to a clean 96-well plate and seal prior to analysis.
The LC-MS method utilizes a Shimadzu Prominence 20 A HPLC system connected to an AB Sciex 5500™ or an AB Sciex 6500™ triple quadrupole mass spectrometer. Extracted samples were separated using a Thermo Hypercarb™ Javelin guard column (2.1 × 20 mm, 5 µm) with an injection volume of 15 µL and a flow rate of 1 mL/minute.
ZMP, AICAr and dUMP were detected using positive ion TurboIonSpray® multiple reaction monitoring mode and the data were processed with AB Sciex MultiQuant™. Back-calculated ZMP concentrations were fit to a four-parameter logistic equation using ACTIVITYBASE 4.0 to determine EC50 values relative to the maximum observed metabolite levels.

In another assay the test system is A9 cells. In words: MS detection of ZMP and dUMP in cultured cells. It is filed as cell-based, murine. Conditions: A9; data not shown. Here is the method:
To mimic human plasma levels, low folate media is traditionally used in which the folate comes only from the defined fetal bovine serum. […] Because LSN3213128 would be dosed in mice on normal diet, cell line screening was performed under standard tissue culture conditions to identify cell lines sensitive to treatment under high folate conditions. In order to compare tissue culture values with tumor levels, an average 4 pL cell volume[36] was used to calculate cellular ZMP concentrations. In MDA-MB-231[…] cells using regular RPMI, the peak intracellular ZMP levels are about 770 μM while in the salvage deficient A9 cells ZMP is 6,500 μM. […] It is not surprising that in vivo in mice on standard chow where folate plasma levels are >10-fold lower than tissue culture that tumor ZMP levels are also lower. […] ZMP was detected in cultured cells via mass spec analysis. Cells were plated in 96-well plates at 25,000 cells per well in 100 μL with either high or low folate RPMI media and incubated overnight at 37 °C with 5% CO2. Cells were treated with inhibitor compounds for 16 hours, 0.5% DMSO final concentration. Growth media was decanted and cells were lysed for 10 min at room temperature with 50 μL per well of 1x Sure Fire Lysis buffer (Perkin Elmer, SureFire kit component). […] Samples were sealed, vortexed for 5 minutes, and placed in the refrigerator for at least 30 minutes. The samples were centrifuged at 4 °C for 10 minutes at 16,600 g. 75 μL of the aqueous layer were transferred to a clean 96-well plate and seal prior to analysis. The LC-MS method utilizes a Shimadzu Prominence 20 A HPLC system connected to an AB Sciex 5500TM or an AB Sciex 6500TM triple quadrupole mass spectrometer. […] […] dUMP were detected using positive ion TurboIonSpray® multiple reaction monitoring mode and the data were processed with AB Sciex MultiQuantTM. Back-calculated ZMP concentrations were fit to a four-parameter logistic equation using ACTIVITYBASE 4.0 to determine EC50 values relative to the maximum observed metabolite levels.

T1 sequence (P11586 whole entry): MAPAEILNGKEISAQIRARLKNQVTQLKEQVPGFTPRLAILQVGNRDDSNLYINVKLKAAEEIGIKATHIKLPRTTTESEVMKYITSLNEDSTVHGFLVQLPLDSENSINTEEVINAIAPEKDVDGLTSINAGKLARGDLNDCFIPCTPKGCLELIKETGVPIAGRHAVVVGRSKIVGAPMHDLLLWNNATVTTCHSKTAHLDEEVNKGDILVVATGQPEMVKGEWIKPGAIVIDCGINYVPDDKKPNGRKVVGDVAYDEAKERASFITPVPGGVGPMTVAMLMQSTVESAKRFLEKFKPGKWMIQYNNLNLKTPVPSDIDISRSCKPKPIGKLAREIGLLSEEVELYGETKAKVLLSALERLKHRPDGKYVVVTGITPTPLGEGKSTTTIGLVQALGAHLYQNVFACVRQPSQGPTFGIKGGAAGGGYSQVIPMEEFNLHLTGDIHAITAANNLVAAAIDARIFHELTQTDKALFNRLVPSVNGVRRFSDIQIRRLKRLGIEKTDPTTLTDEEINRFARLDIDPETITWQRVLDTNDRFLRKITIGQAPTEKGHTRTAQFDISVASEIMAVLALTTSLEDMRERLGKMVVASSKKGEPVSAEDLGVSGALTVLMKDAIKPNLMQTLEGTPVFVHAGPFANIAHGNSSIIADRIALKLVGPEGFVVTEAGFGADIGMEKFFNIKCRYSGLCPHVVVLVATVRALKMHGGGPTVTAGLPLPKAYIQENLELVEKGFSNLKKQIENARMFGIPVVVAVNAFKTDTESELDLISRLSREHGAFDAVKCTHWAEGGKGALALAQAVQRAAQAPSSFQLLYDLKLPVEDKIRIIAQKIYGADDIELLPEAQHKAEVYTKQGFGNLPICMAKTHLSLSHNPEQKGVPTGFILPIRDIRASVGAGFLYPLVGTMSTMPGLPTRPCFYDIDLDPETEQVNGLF
SHMT1, sequence (P34896 whole entry): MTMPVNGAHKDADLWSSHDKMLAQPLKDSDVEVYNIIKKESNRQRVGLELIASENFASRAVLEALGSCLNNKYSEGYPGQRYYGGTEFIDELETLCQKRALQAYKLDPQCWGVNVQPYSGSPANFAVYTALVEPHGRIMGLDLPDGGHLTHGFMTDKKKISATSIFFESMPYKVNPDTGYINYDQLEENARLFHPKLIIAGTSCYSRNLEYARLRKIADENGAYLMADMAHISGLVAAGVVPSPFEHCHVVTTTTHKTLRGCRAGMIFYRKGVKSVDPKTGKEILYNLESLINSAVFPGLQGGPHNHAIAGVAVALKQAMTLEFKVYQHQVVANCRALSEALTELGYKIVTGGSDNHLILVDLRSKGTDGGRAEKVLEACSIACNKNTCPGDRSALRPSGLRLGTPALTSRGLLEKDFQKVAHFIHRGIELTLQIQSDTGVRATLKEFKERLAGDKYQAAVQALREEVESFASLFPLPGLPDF
ATIC (AICARFT), sequence (P31939 whole entry): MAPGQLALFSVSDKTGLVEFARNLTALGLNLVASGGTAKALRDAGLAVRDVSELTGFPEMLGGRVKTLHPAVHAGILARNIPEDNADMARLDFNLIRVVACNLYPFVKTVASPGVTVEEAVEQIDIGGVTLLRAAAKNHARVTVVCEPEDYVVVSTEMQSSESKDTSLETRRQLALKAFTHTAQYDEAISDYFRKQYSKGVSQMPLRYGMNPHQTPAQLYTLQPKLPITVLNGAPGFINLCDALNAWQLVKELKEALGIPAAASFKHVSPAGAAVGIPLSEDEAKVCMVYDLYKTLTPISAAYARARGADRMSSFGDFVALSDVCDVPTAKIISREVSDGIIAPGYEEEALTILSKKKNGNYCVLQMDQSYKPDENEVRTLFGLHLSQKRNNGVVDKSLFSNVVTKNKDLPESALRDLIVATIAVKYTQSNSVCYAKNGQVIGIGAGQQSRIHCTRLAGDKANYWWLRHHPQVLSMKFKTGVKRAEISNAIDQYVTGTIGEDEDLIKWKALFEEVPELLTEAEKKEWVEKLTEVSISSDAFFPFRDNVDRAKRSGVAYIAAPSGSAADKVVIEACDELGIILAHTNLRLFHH
MTHFD2L, sequence (Q9H903 46-347): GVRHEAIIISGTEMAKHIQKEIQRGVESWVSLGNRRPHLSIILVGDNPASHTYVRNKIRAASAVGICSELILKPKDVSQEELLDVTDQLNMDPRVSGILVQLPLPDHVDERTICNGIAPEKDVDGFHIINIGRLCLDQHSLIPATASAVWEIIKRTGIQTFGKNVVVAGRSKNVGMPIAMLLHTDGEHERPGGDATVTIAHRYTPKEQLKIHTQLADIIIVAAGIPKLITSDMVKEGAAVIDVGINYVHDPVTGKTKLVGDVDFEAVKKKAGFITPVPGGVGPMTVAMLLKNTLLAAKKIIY
MTHFD2, sequence (P13995 32-350): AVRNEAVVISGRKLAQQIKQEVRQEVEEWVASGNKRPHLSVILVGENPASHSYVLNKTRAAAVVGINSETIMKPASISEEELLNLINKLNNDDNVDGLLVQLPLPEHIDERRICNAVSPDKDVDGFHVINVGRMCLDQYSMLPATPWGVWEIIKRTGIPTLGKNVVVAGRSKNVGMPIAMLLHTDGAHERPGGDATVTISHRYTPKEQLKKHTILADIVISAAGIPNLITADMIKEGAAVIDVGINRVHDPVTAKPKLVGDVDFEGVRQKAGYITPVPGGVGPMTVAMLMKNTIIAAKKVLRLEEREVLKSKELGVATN

As for `Nc1nc2[nH]cc(CCCc3ccc(C(=O)N[C@@H](CCC(=O)O)C(=O)O)cc3)c2c(=O)[nH]1` [N-({4-[3-(2-AMINO-4-HYDROXY-7H-PYRROLO[2,3-D]PYRIMIDIN-5-YL)PROPYL]PHENYL}CARBONYL)-L-GLUTAMIC ACID], the IC50 was found to be 9.2 µM at ATIC (AICARFT); 10.1 µM at SHMT1; 5.6 µM at MTHFD1; 1.4 µM at MTHFD2; 8.6 µM on MTHFD2L.
For the molecule `NC(=O)c1ncn([C@@H]2O[C@H](COP(=O)(O)O)[C@@H](O)[C@H]2O)c1N` [ZMP, 5-aminoimidazole 4-carboxamide ribonucleotide], in assay [1], the IC50 stood at 108 ± 78 µM.
Turning to `Nc1nc2c(c(=O)[nH]1)C[C@@H](CCc1ccc(C(=O)N[C@@H](CCC(=O)O)C(=O)O)cc1)CN2` [lometrexol, reference compound], the “effect on ZMP” value in the assay on NCI-H460 (lung) and with A9 cells was “inhibits ZMP” in each case.

(Values after PMC6193938, “Characterization of a novel AICARFT inhibitor which potently elevates ZMP and has anti-tumor activity in murine models” (Scientific Reports, 2018).)
